The test system of series [1] is Mus musculus. Briefly: Toxicity in mouse at 4.8 nmol, icv measured within 1.5 hrs post-drug administration. The format is organism-based. The note with it: in vivo, icv_or_intrathecal.
Series [2] can be described thus: Toxicity in mouse assessed as animal death at 2.4 nmol, icv. The format is organism-based. The note with it: in vivo, icv or intrathecal, read-out: Activity.
Series [3] addresses Opioid receptors; mu/kappa/delta (Homo sapiens) (UniProt P41145+P41143+P35372). The note with it: Brain, 1 uM.
Description: Displacement of [3H]naloxone from opioid receptor (unknown origin) in brain homogenate at 1 uM to 10 nM
Series [4] has as its system Mus musculus. Briefly: Residual inhibition of morphine-induced analgesia in mouse at 2.4 nmol, icv measured after 2 hrs by tail-flick assay. The format is functional, organism-based. A general note: In hot-plate and tail-flick tests a longer latency is read as antinociception.

SMILES strings stand for the structures. Activity calls are given as the source filed them. No cut-off for these calls is given here.

Opioid receptors; mu/kappa/delta (Homo sapiens), sequence (P35372 whole entry, looked up): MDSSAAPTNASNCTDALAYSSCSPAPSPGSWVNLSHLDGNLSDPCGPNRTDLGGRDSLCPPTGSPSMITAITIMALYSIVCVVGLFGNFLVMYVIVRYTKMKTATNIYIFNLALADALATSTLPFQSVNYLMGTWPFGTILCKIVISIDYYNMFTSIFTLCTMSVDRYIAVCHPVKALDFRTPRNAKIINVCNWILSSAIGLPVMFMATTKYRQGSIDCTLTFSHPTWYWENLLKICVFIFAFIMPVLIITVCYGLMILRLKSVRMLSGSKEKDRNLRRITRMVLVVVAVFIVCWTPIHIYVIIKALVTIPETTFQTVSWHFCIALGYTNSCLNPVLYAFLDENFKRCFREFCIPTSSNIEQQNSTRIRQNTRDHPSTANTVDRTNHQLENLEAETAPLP
Opioid receptors; mu/kappa/delta (Homo sapiens), sequence (P41143 whole entry, looked up): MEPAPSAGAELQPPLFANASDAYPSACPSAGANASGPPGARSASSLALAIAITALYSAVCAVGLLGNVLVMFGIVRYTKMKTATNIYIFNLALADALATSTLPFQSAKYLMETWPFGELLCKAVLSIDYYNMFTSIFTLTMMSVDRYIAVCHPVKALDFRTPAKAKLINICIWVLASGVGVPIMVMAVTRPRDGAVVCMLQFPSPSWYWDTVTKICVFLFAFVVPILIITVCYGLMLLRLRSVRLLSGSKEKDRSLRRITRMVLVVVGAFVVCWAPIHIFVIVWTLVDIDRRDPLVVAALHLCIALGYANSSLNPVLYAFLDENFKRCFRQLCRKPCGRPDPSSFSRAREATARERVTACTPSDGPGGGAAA
Opioid receptors; mu/kappa/delta (Homo sapiens), sequence (P41145 whole entry, looked up): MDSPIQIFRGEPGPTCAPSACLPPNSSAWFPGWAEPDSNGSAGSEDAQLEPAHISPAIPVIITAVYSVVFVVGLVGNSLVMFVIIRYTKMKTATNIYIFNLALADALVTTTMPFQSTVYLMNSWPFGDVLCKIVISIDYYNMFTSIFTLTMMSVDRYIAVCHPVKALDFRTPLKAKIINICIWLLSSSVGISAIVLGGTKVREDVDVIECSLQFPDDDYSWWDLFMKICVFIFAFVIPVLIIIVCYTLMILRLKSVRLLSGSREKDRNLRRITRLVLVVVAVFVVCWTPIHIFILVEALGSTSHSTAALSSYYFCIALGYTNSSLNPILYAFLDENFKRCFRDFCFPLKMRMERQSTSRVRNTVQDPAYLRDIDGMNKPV

Take `Cl.Oc1ccc2c3c1O[C@H]1[C@H](N(CCCl)CCCl)CC[C@@]4(O)[C@@H](C2)N(CC2CC2)CC[C@]314`: the Activity in the series on Mus musculus [1] was found to be 12%. The mortality in series [2] came out at 2%.
With `CN1CC[C@]23CCCC[C@H]2[C@H]1Cc1ccc(O)cc13`, the inhibition result in series [3] is “Active”.
As for `O=C1CC[C@@]2(O)[C@H]3Cc4ccc(O)c5c4[C@@]2(CCN3CC2CC2)[C@H]1O5`, the inhibition result in the series with Mus musculus [4] was “inactive”.
